# Reference: patent US8138158B2, “Compositions and methods for therapy for diseases characterized by defective chloride transport” (Children's Hospital & Research Center at Oakland, priority 1997, dated 2012)
# Tests used:
# [1] = system: CF15 monolayers homozygous for ΔF508 CFTR; experiment: Short-circuit current across CF15 monolayers homozygous for ΔF508 CFTR; format: cell-based, human
# Protocol: Human airway cell culture. The human submucosal serous gland-like cell line Calu-3, the CF nasal epithelial cell line homozygous for ΔF508 CFTR (CF15) and human tracheal primary cultures (hTE) were cultured as described (Jefferson, D. M., Valentich, J. D., Marini, F. C., Grubman, S. A., Iannuzzi, M. C., Dorkin, H. L., Li, M., Klinger, K. W. & Welsh, M. J. (1990) Am. J. Physiol. 259, L496-L505. Sachs, L. A., Finkbeiner, W. E. & Widdicombe, J. H. (2003) In Vitro Cell Dev. Biol. Anim. 39, 56-62.). Wildtype CFTR-corrected CF15 cells were generated via adenovirus-mediated gene transfer. Growth media were nominally free of ascorbic acid (<10 μm, University Pathology Inc., Salt Lake City, Utah). For transepithelial measurements cells were grown on permeable filter inserts and used after 3 to 10 days.
# (§1) Short-circuit current measurement. Calu-3 or CF15 cells were grown as monolayers, mounted in Ussing chambers and short-circuit current (ISC) was recorded as described (Illek, B. & Fischer, H. (1998) Am. J. Physiol. 275, L902-L910). At 20-50 second intervals, transepithelial voltage was clamped from zero to 2 mV and the transepithelial resistance (Rte) was calculated. A serosa-to-mucosa-directed Cl gradient was applied. Serosal Ussing chamber solution contained (in mM): 120 NaCl, 20 NaHCO3, 5 KHCO3, 1.2 NaH2PO4, 5.6 glucose, 2.5 CaCl2, 1.2 MgCl2. In mucosal Ussing chamber solutions, all Cl salts were exchanged for gluconate salts.
# The CF15 cell line was used to determine whether ascorbate-stimulated Cl currents were solely mediated by the CFTR Cl conductance. The CF15 cell line is characterized by the absence of functional CFTR in the apical plasma membrane but the presence of other non-CFTR Cl conductances (Jefferson, D. M., Valentich, J. D., Marini, F. C., Grubman, S. A., Iannuzzi, M. C., Dorkin, H. L., Li, M., Klinger, K. W. & Welsh, M. J. (1990) Am. J. Physiol. 259, L496-L505). A concentration of L-ascorbic acid that lay within the upper plateau of the dose response curve (500 μm) was applied and ascorbate-stimulated Cl currents in CF15 vs. wildtype CFTR-corrected CF15 monolayers was compared (FIG. 23A). […] The defective response to L-ascorbic acid was reversed in wildtype CFTR-corrected CF15 epithelia such that ISC responded promptly to L-ascorbic acid (ΔISC=7.5±0.5 μA/cm^2, n=6). The ascorbate-stimulated current was further activated by the cAMP agonist forskolin and total stimulated ISC averaged 12.1±1.1 μA/cm^2 (FIG. 4B). The ascorbate-stimulated Cl current reached 60±15% of the forskolin-stimulated current in CFTR-corrected CF15 monolayers, which was close to the corresponding findings in Calu-3 monolayers (68%, see FIG. 21A). […]
# In this example, chloride currents stimulated by L-ascorbate or D-ascorbate were measured in CF15 versus. wildtype CFTR-corrected CF15 monolayers. A concentration of L-ascorbate (1 mM) or D-isoascorbate (300 μm) that lay within the upper plateau of the dose-response curve was applied to cells and the resulting chloride currents stimulated in CF15 versus wildtype CFTR-corrected CF15 monolayers were measured (FIG. 25 A-H). […]
# The functional activation of ΔF508 CFTR was determined after correction of the underlying trafficking defect of ΔF508 CFTR using S-Nitrosoglutathione (Zaman, et al., Biochem Biophys Res Commun 284: 65-70, 2001; Snyder, et al., American Journal of Respiratory and Critical Care Medicine 165: 922-6, 2002; Andersson, et al. Biochemical and Biophysical Research Communication 297(3): 552-557, 2002.). […]
# [2] = system: Calu-3 airway epithelia; experiment: Short-circuit current (transepithelial Cl secretion) across Calu-3 airway epithelia, Examples 12-13; format: cell-based, human
# Protocol: as §1
# Vitamin C activation of CFTR-mediated Cl secretion was studied in Calu-3 cells grown as epithelial monolayers (FIG. 21A). Exposure of the apical membrane to maximal concentrations of L-ascorbic acid stimulated transepithelial Cl currents (ISC) in a sustained fashion to 96±11 μA/cm^2 (n=22). Subsequent addition of forskolin further increased ISC to 141±33 μA/cm^2 (n=9, p=0.029). On average, Cl secretion was stimulated by ascorbate to 68% of the currents elicited by forskolin. The Cl channel blocker diphenylcarboxylate (DPC, 4 mM) was added as a measure for the transcellular Cl current decreasing ISC to 30±4 μA/cm^2. When Cl secretion was first stimulated with forskolin (to 106±23 μA/cm^2, n=4) ascorbate had no significant effect on Ise (at 100 μM: ΔICl=−1.5±3.5 μA/cm^2, n=4, not different from zero, one-sample t test). Half-maximal stimulatory constant averaged 36.5±2.9 μm as determined from transepithelial dose-response experiments.
# Furthermore, the response to ascorbate in Na-containing medium was blunted in the presence of phloretin, a known inhibitor of the sodium-dependent vitamin C transporters SVCT1 and SVCT2 (Tsukaguchi, H., Tokui, T., Mackenzie, B., Berger, U. V., Chen, X. Z., Wang, Y., Brubaker, R. F. & Hediger, M. A. (1999) Nature 399, 70-75). […] Molecular expression of SVCT1 and SVCT2 transcripts in Calu-3 cells was verified using RT-PCR and DNA sequencing analysis. For comparison, human ciliated tracheal epithelial cultures (hTE) and a nasal cystic fibrosis airway cell line (CF15) were included. […] The recombinantly expressed SVCT2-EGFP fusion protein was targeted exclusively to the apical membrane pole of CF15 epithelia.
structure (smiles),measurement,setting,value
"O=C1O[C@H](C(O)CO)C(O)=C1O (stereo partly drawn) [L-ascorbic acid, L-xyloascorbic acid]",transepithelial chloride currents increased on average by,"[1]; CF15 treated with 1 mM SNOG for 5-24 hours, L-ascorbate 1 mM, n=10",2.1±0.1
same,ΔISC,"[1]; uncorrected CF15, L-ascorbic acid 500 μm, n=5",1.3±0.5 μA/cm^2
same,ΔIsc,"[1]; untreated CF epithelia, L-ascorbate 1 mM, amiloride, n=13",1.1±0.3 μA/cm^2
same,concentrations causing maximal stimulation,[2]; FIG. 21B,> 300 µM
same,EC50,"[2]; Homo sapiens, Calu-3, transepithelial dose-response experiments, read-out: Half-maximal stimulatory constant",36.5 ± 2.9 µM
same,transepithelial Cl currents (ISC) stimulated to,"[2]; apical exposure to maximal concentrations of L-ascorbic acid, n=22",96±11 μA/cm^2
same,ΔICl after forskolin prestimulation,"[2]; ascorbate at 100 μM after forskolin, n=4, not different from zero",−1.5±3.5 μA/cm^2
same,ascorbate-stimulated Cl secretion in absence of extracellular Na,[2]; no Na on the mucosal side,significantly reduced
same,"Cl secretion stimulated, % of the currents elicited by forskolin",[2]; on average,68%
